Experimental data: patent publication US10054582B2, “Compositions and methods for inhibiting HMGB1 activation of melanocytes” (The Procter & Gamble Company, priority 2014, dated 2018)
Entries after “also recorded” stand apart in the source; their conditions may differ.

Legend:
[1] = tested on: HMGB1; experiment: HMGB1 quantitation from keratinocytes (ELISA, normalized to total protein); type: cell-based; settings: for change in HMGB1 level relative to the control (in words): keratinocytes contacted with test agent at different concentrations; for HMGB1 (pg)/protein (ug): keratinocytes, vehicle control 54
Experimental: Make a 210 mL suspension of keratinocytes at 40,000 cells/mL using suitable media to make a cell suspension. Place 2 mL of the cell suspension into the appropriate number of wells of one or more 12-well plates as needed, using the same velocity and insertion angle for each well as cells are pipetted. Incubate the 12-well plates overnight at 37° C. If the cell plating quality is poor (e.g., cells are not attached to plate or seeding density is uneven), discard and start over. Prepare a dosing media by diluting the test agent to the desired concentration (e.g., from 0.0001% to 10%) in a suitable media (e.g., the same media used to make the cell suspension). […] It is not uncommon for skin care actives to be included in skin care compositions at these levels. Optionally, include sufficient solublizer to provide 0.1% solublizer in the test sample. Add 2 mL of dosing media into each well of a 12-well plate and incubate at 4° C. overnight or until test agent is to be added to the test sample. Place prepared dosing media in the 37° C. incubator for at least 30 minutes, or until pH has equalized. When dosing media is warmed and at proper pH, dose the cells. Incubate the dosed cells at 37° C. for 6 hours. Keratinocytes (or other cells) are plated out in 12 well plates as described above with a seeding density of about 200,000 cells/well and incubated overnight at 37° C. with 5% CO2. The keratinocytes are dosed with a dosing medium containing the test agent and the plates returned to the incubator for another 20 hours. The supernatant for each is collected and the HMGB1 level analyzed using ELISA (USCN Life Sciences) in accordance with manufacturer's instructions. The cells are lysed with Glo Lysis Buffer (Promega) and the protein levels determined using a PIERCE brand bicinchoninic acid protein assay kit per manufacturer's instructions. The values of HMGB1 determined by ELISA and normalized to total protein levels from the cells.

[2] = tested on: primary human melanocytes; experiment: Melanocyte dendricity and size measurements (Incucyte ZOOM live cell imaging); type: cell-based
Source text: The ability of a test agent to inhibit dendricity and cell body growth in melanocytes may be determined by contacting a sample of melanocytes with the test agent, measuring the change in dendricity and/or cell body growth and comparing the measured indicator to a control to determine if the test agent is identified as a skin tone agent. In some instances, it is important for the test sample to include a source of HMGB1. For example, an amount of HMGB1 (e.g., recombinant HIS-tagged HMGB1 available from Sigma) may be included in the test sample (e.g., at a final level of 0.1 μg/mL), or the test sample may include another type of cell, which can be stimulated to produce HMGB1. A control may be obtained by measuring the dendricity and/or cell body size of the melanocytes prior to contact with the test agent, measuring the dendricity and/or cell body size of the melanocytes in a control sample and/or from the dendricity and/or cell body size of melanocytes published in scientific literature, if available.
Primary human melanocytes (ATCC) are cultured for 2 passages in T150 flasks. For dendricity experiments, melanocytes are plated into 96 well plates (clear) at a density of about 5000 cells/well. The plates are placed into an Incucyte ZOOM® live cell imaging system (Essen Bioscience, Ann Arbor, Mich.) which resides inside a 37° C., 5% CO2 incubator. 20× images are collected every hour using the phase mode. The Neurite Outgrowth Software Package (Essen) is used to measure cell body size, dendrite length, and cell numbers.

[3] = melanocytes contacted with HMGB1 vs control / before treatment, span of three days

Row | Molecule | change in HMGB1 level relative to the control (in words) [1] | HMGB1 (pg)/protein (ug) ([1]; test agent at 0.001%) | HMGB1 (pg)/protein (ug) ([1]; test agent at 0.005%) | HMGB1 (pg)/protein (ug) ([1]; test agent at 0.02%) | cell body size of melanocytes [2, 3] | dendricity (dendrite length) of melanocytes [2, 3] | melanocyte proliferation ([2]; primary human melanocytes contacted with HMGB1)
1 | hydroxycinnamic acid [HCA] | significantly reduced HMGB1 levels relative to the control | 29 pg/µg | 6 pg/µg | 2 pg/µg | – | – | –
2 | methyl hydroxycinnamic acid [ME-HCA] | significantly reduced HMGB1 levels relative to the control | 33 pg/µg | 28 pg/µg | 4 pg/µg | – | – | –
3 | HMGB1: high-mobility group protein B1, SEQ ID NO: 1; recombinant HIS-tagged HMGB1 available from Sigma (protein, listed as Homo sapiens, His tag, recombinant HIS-tagged HMGB1 available from Sigma) MGKGDPKKPRGKMSSYAFFVQTCREEHKKKHPDASVNFSEFSKKCSERWKTMSAKEKGKFEDMAKADKARYEREMKTYIPPKGETKKKFKDPNAPKRPPSAFFLFCSEYRPKIKGEHPGLSIGDVAKKLGEMWNNTAADDKQPYEKKAAKLKEKYEKDIAAYRAKGKPDAAKKGVVKAEKSKKKKEEEEDEEDEEDEEEEEDEEDEDEEEDDDDE | – | – | – | – | significantly larger cell body size relative to the control; also recorded: increased dendricity and cell body size | significantly longer dendrites relative to the control; also recorded: increased dendricity | without enhancing melanocyte proliferation
